Experimental findings from US9376420B2 (YUHAN CORPORATION, priority 2012, dated 2016) are described below.

The target of the experiment is T1, human LXRβ (Homo sapiens, UniProt P55055).
T1 construct: expressed in transfected cells; host or cells: HEK293 cells (ATCC CRL-1573), transient transfection with pFA-hLXRβ/GAL4 and pUAS
T1 sequence (P55055 222-460 limits assumed): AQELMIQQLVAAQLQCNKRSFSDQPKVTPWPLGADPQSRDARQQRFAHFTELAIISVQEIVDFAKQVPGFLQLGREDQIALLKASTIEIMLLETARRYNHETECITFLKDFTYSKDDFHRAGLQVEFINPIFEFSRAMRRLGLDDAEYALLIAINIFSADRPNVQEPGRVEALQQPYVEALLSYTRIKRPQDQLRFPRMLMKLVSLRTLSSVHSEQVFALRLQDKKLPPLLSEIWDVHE
Put plainly: Assay for Transcriptional Activity of LXRβ (GAL4-hLXRβ LBD luciferase reporter, transient transfection). It is filed as cell-based. Conditions: HEK293 cells transfected with pFA-hLXRβ/GAL4 and pUAS, 24 hours; for Emax: fold value in comparison with the control (DMSO-treated group); for EC50: increase of transcriptional activity of LXRβ, average of three independent tests. In outline:
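EC50 values, averaged over three independent runs, come from a four-parameter fit of 9-point half-log curves spanning 0.01–50 μM. Luciferase output was read in lysed HEK293 cells 24 h after dosing at 37 °C, following transient transfection with a GAL4-human LXRβ LBD fusion plus GAL4-responsive reporter.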

A word on the EC50: it is the concentration needed to bring the measured effect to its halfway point.

Take `CS(=O)(=O)c1cc(-c2cccc(C3CC(C(F)(F)C(F)(F)F)=NN3c3ccc(F)cc3F)c2)cc(F)c1CO` (stereo not drawn) [Example 76, 1-(2,4-difluoro-phenyl)-5-[3′-fluoro-4′-(hydroxymethyl)-5′-(methylsulfonyl)-biphenyl-3-yl]-3-pentafluoroethyl-4,5-dihydro-1H-pyrazole]: the Emax was 84 fold and the response was half-maximal at 189 nM (EC50).

With `OC(C1=NN(c2ccccc2Cl)C(c2ccc(-c3ccc(F)cc3)nc2)C1)(C(F)(F)F)C(F)(F)F` (stereo not drawn) [Example 353, 1-(2-chloro-phenyl)-5-[6-(4-fluoro-phenyl)-pyridin-3-yl]-3-[di-(trifluoromethyl)-hydroxy-methyl]-4,5-dihydro-1H-pyrazole], the Emax amounted to 94 fold and the EC50 was found to be 473 nM.

In turn, `CS(=O)(=O)c1cccc(-c2ccc(C3CC(C(F)(F)C(F)(F)F)=NN3c3ccc(F)cc3F)cc2)c1` (stereo not drawn) [Example 18, 1-(2,4-difluoro-phenyl)-5-(3′-methanesulfonyl-biphenyl-4-yl)-3-pentafluoroethyl-4,5-dihydro-1H-pyrazole] displayed an Emax of 103 fold and an EC50 of 692 nM.

The compound `CSc1cccc(-c2ccnc(C3CC(C(F)(F)C(F)(F)F)=NN3c3ccc(F)cc3F)c2)c1` (stereo not drawn) [Example 172, 1-(2,4-difluoro-phenyl)-5-[4-(3-methylsulfanyl-phenyl)-pyridin-2-yl]-3-pentafluoroethyl-4,5-dihydro-1H-pyrazole] gave an Emax of 73 fold and an EC50 of 1020 nM.

As for `CC(C)Oc1ccccc1-c1ccc(C2CC(C(O)(C(F)(F)F)C(F)(F)F)=NN2c2ccccc2Cl)cc1F` (stereo not drawn) [Example 367, 1-(2-chloro-phenyl)-5-(2-fluoro-2′-isopropoxy-biphenyl-4-yl)-3-[di-(trifluoromethyl)-hydroxy-methyl]-4,5-dihydro-1H-pyrazole], the Emax is 59 fold and the EC50 turned out to be 312 nM.

`CS(=O)(=O)N1CCN(c2cc(C3CC(C(F)(F)C(F)(F)F)=NN3c3ccc(F)cc3F)ccn2)CC1` (stereo not drawn) [Example 194, 1-(2,4-difluoro-phenyl)-5-[2-(4-methanesulfonyl-piperazin-1-yl)-pyridin-4-yl]-3-pentafluoroethyl-4,5-dihydro-1H-pyrazole] showed an Emax of 95 fold and an EC50 of 3630 nM.

`Oc1cccc(-c2cccc(C3CC(C(F)(F)C(F)(F)F)=NN3c3ccccc3Cl)c2)c1` (stereo not drawn) [Example 111, 1-(2-chloro-phenyl)-5-(3′-hydroxy-biphenyl-3-yl)-3-pentafluoroethyl-4,5-dihydro-1H-pyrazole]: the Emax stood at 41 fold and the EC50 amounted to 4150 nM.

Regarding `CSc1ccc(-c2ccc(C3CC(C(O)(C(F)(F)F)C(F)(F)F)=NN3c3ccc(F)cc3F)cc2)cn1` (stereo not drawn) [Example 382, 1-(2,4-difluoro-phenyl)-5-[4-(6-methanesulfanyl-pyridin-3-yl)-phenyl]-3-[di-(trifluoromethyl)-hydroxy-methyl]-4,5-dihydro-1H-pyrazole], the Emax worked out at 44 fold and the EC50 is 772 nM.

With `Cc1cccc(-c2ccc(C3CC(C(O)(C(F)(F)F)C(F)(F)F)=NN3c3ccccc3Cl)cc2)n1` (stereo not drawn) [Example 276, 1-(2-chloro-phenyl)-5-[4-(6-methyl-pyridin-2-yl)-phenyl]-3-[di-(trifluoromethyl)-hydroxy-methyl]-4,5-dihydro-1H-pyrazole], the Emax worked out at 87 fold and the EC50 worked out at 1240 nM.

As for `Cc1ncccc1-c1cccc(C2CC(C(F)(F)C(F)(F)F)=NN2c2ccc(F)cc2F)c1` (stereo not drawn) [Example 71, 1-(2,4-difluoro-phenyl)-5-(3-(2-methyl-pyridin-3-yl)-phenyl)-3-pentafluoroethyl-4,5-dihydro-1H-pyrazole], the Emax was 20 fold and the EC50 came out at 1230 nM.

The compound `CSc1cccc(-c2cccc(N3N=C(C(O)(C(F)(F)F)C(F)(F)F)CC3c3ccccc3Cl)c2)c1` (stereo not drawn) [Example 431, 5-(2-chloro-phenyl)-1-[3′-(methylsulfanyl)-biphenyl-3-yl]-3-[di-(trifluoromethyl)-hydroxy-methyl]-4,5-dihydro-1H-pyrazole] returned an Emax of 17 fold and an EC50 of 2240 nM.

As to `Cc1ccc(-c2ccc(C3CC(C(O)(C(F)(F)F)C(F)(F)F)=NN3c3ccccc3Cl)cc2)cc1` (stereo not drawn) [Example 250, 1-(2-chloro-phenyl)-5-(4′-methyl-biphenyl-4-yl)-3-[di-(trifluoromethyl)-hydroxy-methyl]-4,5-dihydro-1H-pyrazole], the Emax is 107 fold and the EC50 came out at 625 nM.

For the compound `CS(=O)(=O)c1cc(F)c(-c2ccc(C3CC(C(O)(C(F)(F)F)C(F)(F)F)=NN3c3ccc(F)cc3F)cc2)c(F)c1` (stereo not drawn) [Example 389, 1-(2,4-difluoro-phenyl)-5-(2′,6′-difluoro-4′-methanesulfonyl-biphenyl-4-yl)-3-[di-(trifluoromethyl)-hydroxy-methyl]-4,5-dihydro-1H-pyrazole], the Emax is listed as 29 fold and the EC50 is 503 nM.

`COc1ccc(-c2ccc(C3CC(C(O)(C(F)(F)F)C(F)(F)F)=NN3c3ccc(F)cc3F)cc2)cn1` (stereo not drawn) [Example 370, 1-(2,4-difluoro-phenyl)-5-(4-(6-methoxy-pyridin-3-yl)-phenyl)-3-[di-(trifluoromethyl)-hydroxy-methyl]-4,5-dihydro-1H-pyrazole] registered an Emax of 36 fold and an EC50 of 821 nM.

For `O=C(c1ccccc1)N1CC=C(c2cccc(C3CC(C(O)(C(F)(F)F)C(F)(F)F)=NN3c3ccccc3Cl)c2)CC1` (stereo not drawn) [Example 235, 5-[3-(1-benzoyl-1,2,3,6-tetrahydropyridin-4-yl)-phenyl]-1-(2-chloro-phenyl)-3-[di-(trifluoromethyl)-hydroxy-methyl]-4,5-dihydro-1H-pyrazole], the Emax is given as 63 fold and the EC50 is 31 nM.

Regarding `CS(=O)(=O)c1cccc(-c2cccc(C3CC(C(F)(F)C(F)(F)F)=NN3c3ccccc3Cl)n2)c1` (stereo not drawn) [Example 157, 1-(2-chloro-phenyl)-5-[2-(3-methanesulfonyl-phenyl)-pyridin-6-yl]-3-pentafluoroethyl-4,5-dihydro-1H-pyrazole], the Emax was found to be 96 fold and the EC50 worked out at 397 nM.

`CC(=O)c1ccccc1-c1ccc(C2CC(C(O)(C(F)(F)F)C(F)(F)F)=NN2c2ccccc2Cl)cc1` (stereo not drawn) [Example 241, 5-(2′-acetyl-biphenyl-4-yl)-1-(2-chloro-phenyl)-3-[di-(trifluoromethyl)-hydroxy-methyl]-4,5-dihydro-1H-pyrazole] registered an Emax of 47 fold and an EC50 of 3350 nM.

`CSc1ccc(-c2cccc(C3CC(C(F)(F)C(F)(F)F)=NN3c3ccccc3Cl)c2)cc1` (stereo not drawn) [Example 105, 1-(2-chloro-phenyl)-5-(4′-methylsulfanyl-biphenyl-3-yl)-3-pentafluoroethyl-4,5-dihydro-1H-pyrazole] gave an Emax of 55 fold and a half-maximal effective concentration (EC50) of 6310 nM.

As to `OC(C1=NN(c2ccccc2Cl)C(c2ccc(-c3cc(F)c(-n4cncn4)cc3F)cc2)C1)(C(F)(F)F)C(F)(F)F` (stereo not drawn) [Example 287, 1-(2-chloro-phenyl)-5-[2′,5′-difluoro-4′-(1H-1,2,4-triazol-1-yl)-biphenyl-4-yl]-3-[di-(trifluoromethyl)-hydroxy-methyl]-4,5-dihydro-1H-pyrazole], the Emax was 47 fold and the midpoint of the response, the EC50, lay at 519 nM.

The compound `CS(=O)(=O)c1ccc(-c2cc(C3CC(C(F)(F)C(F)(F)F)=NN3c3ccc(F)cc3F)ccn2)cn1` (stereo not drawn) [Example 189, 1-(2,4-difluoro-phenyl)-5-[2-(6-methanesulfonyl-pyridin-3-yl)-pyridin-4-yl]-3-pentafluoroethyl-4,5-dihydro-1H-pyrazole] had an Emax of 56 fold and an EC50 of 2720 nM.

In the case of `CS(=O)(=O)c1cccc(-c2ccc(C3CC(C(F)(F)C(F)(F)F)=NN3c3ccccc3Cl)cc2)c1` (stereo not drawn) [Example 5, 1-(2-chloro-phenyl)-5-[3′-(methylsulfonyl)-biphenyl-4-yl]-3-pentafluoroethyl-4,5-dihydro-1H-pyrazole], the Emax is 48 fold and the EC50 amounted to 330 nM.

As to `CS(=O)(=O)c1cccc(-c2cccc(N3N=C(C(O)(C(F)(F)F)C(F)(F)F)CC3c3ccccc3Cl)c2)c1` (stereo not drawn) [Example 434, 5-(2-chloro-phenyl)-1-[3′-(methylsulfonyl)-biphenyl-3-yl]-3-[di-(trifluoromethyl)-hydroxy-methyl]-4,5-dihydro-1H-pyrazole], the Emax is 30 fold and a half-maximal response (EC50) required 354 nM.

Consider `CS(=O)(=O)N1CC=C(c2cccc(C3CC(C(F)(F)C(F)(F)F)=NN3c3ccc(F)cc3F)c2)CC1` (stereo not drawn) [Example 62, 1-(2,4-difluoro-phenyl)-5-[3-(1-methanesulfonyl-1,2,3,6-tetrahydropyridin-4-yl)-phenyl]-3-pentafluoroethyl-4,5-dihydro-1H-pyrazole], for which the Emax is recorded as 59 fold and the EC50 worked out at 1160 nM.

As for `CN(C)C(=O)N1CC=C(c2ccc(C3CC(C(O)(C(F)(F)F)C(F)(F)F)=NN3c3ccc(F)cc3F)cc2)CC1` (stereo not drawn) [Example 403, 1-(2,4-difluoro-phenyl)-5-[4-(1-dimethylcarbamoyl-1,2,3,6-tetrahydropyridin-4-yl)-phenyl]-3-[di-(trifluoromethyl)-hydroxy-methyl]-4,5-dihydro-1H-pyrazole], the Emax worked out at 22 fold and the EC50 is 1170 nM.
